Results taken from patent US4605672A, “Diethylaminoalkoxybenzhydrol derivatives, process for their preparation and pharmaceutical compositions containing them” (Richter Gedeon Vegyeszeti Gyar Rt., priority 1982, dated 1986).

What was measured:
ethanolic narcosis [1] = experiment: Ethanolic narcosis period (ethanol 3.5 g./kg. i.p.); assay type: in vivo, Wistar rats; settings: 1 h before ethanol 3.5 g./kg. i.p., n=10, control = 100 ± 6.5
Method: The effect of the compounds according to the invention on ethanolic narcosis was tested on male and female Wistar rats, each weighing 160 to 180 g., in groups of 10. The animals were fasted for 16 hours prior to treatment and were then administered various doses of the test compound, orally. One hour after treatment the rats were treated with 3.5 g./kg. of ethanol intraperitoneally (i.p.). The narcosis period of the animals was measured from the elapse of the righting reflex until a spontaneous correction of the body position. The average of the narcosis period and the percentage difference from the control were calculated. […] The control group was treated with a placebo and a […]. dose of ethanol.

[2] = test system: hyperactivity induced by ethanol; experiment: Hyperactivity induced by ethanol (locomotor activity, Animex BSE motimeter); assay type: in vivo, BALB/c mice; settings: n=15
Method: The effect of the compounds on hyperactivity induced by ethanol was tested on male and female BALB/c mice, each weighing 16 to 18 g. The test materials were administered to groups of 15 orally, one hour before administering the placebo orally or a 2 g./kg. dose of ethanol intraperitoneally. The control animals were treated with the placebo. The locomotor activity of the animals was measured for two hours, using an Animex BSE motimeter.

ethanolic ataxia = experiment: Ethanolic ataxia and muscular tension on rotating rod; assay type: in vivo, BALB/c mice; settings: n=10
Method: The effect of the compounds according to the invention on ethanolic ataxia and the change of muscular tension was tested on rotating rods. Trained and selected male and female BALB/c mice weighing 16 to 18 g. each were administered a 40 mg./kg. oral dose of the test compounds one hour before intraperitoneal administration of 2.5 g./kg. of ethanol. The time until the animals could remain on the rod was measured 60, 90 and 120 minutes after the ethanolic treatment. This time was 120 minutes for the animals with intact coordination. The results are summarized in Table 3, where the percentage of the animals remaining on the rotating rod is indicated.

[3] = test system: catalepsy induced by tetrabenazine; experiment: Inhibition of catalepsy induced by tetrabenazine; assay type: in vivo, Hann.-Wistar rats; settings: Rattus norvegicus, po; rats; orally, 60 minutes before tetrabenazine 30 mg./kg. i.p.; probit analysis
Method: (§1) To determine the antidepressive activity of the compounds provided by the invention the inhibition of catalepsy induced by tetrabenazine and the inversion of hypothermia induced by reserpin were measured. The anticholinergic activity was tested by determining the inhibition of tremor induced by oxotremorin. As a reference compound imipramine was used.

[4] = test system: hypothermia induced by reserpin; experiment: Inversion of reserpin-hypothermia (antireserpin activity); assay type: in vivo, male CFLP mice; settings: Mus musculus, po; mice; orally, 16 hours after reserpin 5 mg./kg. i.p.; dose increasing body temperature by 50%
Method: as §1
The inversion of reserpin-hypothermia was tested on male CFLP mice, weighing 18 to 22 g. each and treated with a 5 mg./kg. dose of reserpin intraperitoneally. 16 hours after treatment the animals were administered various doses of the test compounds, orally. The rectal temperature of the animals was measured before the reserpin treatment, 16 hours after treatment and 2 hours after the administration of the test compounds.

[5] = test system: tremor induced by oxotremorin; experiment: Anticholinergic activity: inhibition of tremor induced by oxotremorin; assay type: in vivo, male CFLP mice; settings: mice, oral; for ED50: Mus musculus, oxotremorin 0.5 mg./kg. i.p., read-out: Oxotremorin inh. (ED50); for Oxotremorin inh. (result in words): remark to the printed 160.0 mg./kg.
Method: as §1
The anticholinergic activity was tested on male CFLP mice, weighing 18 to 22 g. each, which were treated with a 0.5 mg./kg. dose of oxotremorin (i.p.) and after 60 minutes with various oral doses of the test compounds.

Acute toxicity = settings: rat, in vivo; rats; single 500 mg./kg. oral dose; observed for 14 hours; read-out: Toxicity, dead animals (%)
Method: The acute toxicity of the compounds according to the invention was determined on Hann.-Wistar rats of both sexes, weighing 160 to 180 g. each, which had been treated with a single 500 mg./kg. dose of the test compounds, orally. […] In Table 4 the percentage of the dead animals is given.

ethanolic narcosis [6] = settings: known effect of the reference material; cited from earlier work

With `CCN(CC)CCCOc1ccc(C(O)(CC)c2cccc(C(F)(F)F)c2)cc1` (stereo not drawn) [A, 3-trifluoromethyl-4'-[3-(diethylamino)-propoxy]-α-ethyl-benzhydrol] the “Ethanolic narcosis period (Control ± S.E. %)” value (ethanolic narcosis [1]; 10.0 mg./kg. orally) was 52 ± 11.1% and the “Ethanolic narcosis period (Control ± S.E. %)” value (ethanolic narcosis [1]; 40.0 mg./kg. orally) was 40 ± 5.0%.

For `CCN(CC)CCOc1ccc(C(O)(CC)c2ccc(Cl)cc2)cc1` (stereo not drawn) [B, 4-chloro-4'-[2-(diethylamino)-ethoxy]-α-ethyl-benzhydrol], the “Ethanolic narcosis period (Control ± S.E. %)” value (ethanolic narcosis [1]; 10.0 mg./kg. orally) was 48 ± 9.5%, the “Ethanolic narcosis period (Control ± S.E. %)” value (ethanolic narcosis [1]; 40.0 mg./kg. orally) was 39 ± 4.5% and the “Locomotor activity (2 hours)” value ([2]; compound 10.0 mg./kg. orally + ethanol 2000.0 mg./kg. i.p., ethanol + placebo 190 ± 12.2) was 110 ± 8.1 percentage of the control. For the same molecule, the “Locomotor activity (2 hours)” value ([2]; compound 10.0 mg./kg. orally + placebo (no ethanol), placebo control 100 ± 8.1) was 110 ± 15.2 percentage of the control, the “% of the animals remaining on the rod” value (ethanolic ataxia; compound 40.0 mg./kg. orally + ethanol 2500.0 mg./kg. i.p., 60 minutes, ethanol alone 10) was 40% and the “% of the animals remaining on the rod” value (ethanolic ataxia; compound 40.0 mg./kg. orally + ethanol 2500.0 mg./kg. i.p., 90 minutes, ethanol alone 40) was 70%. For the same molecule, the “% of the animals remaining on the rod” value (ethanolic ataxia; compound 40.0 mg./kg. orally + ethanol 2500.0 mg./kg. i.p., 120 minutes, ethanol alone 50) was 90%, the “% of the animals remaining on the rod” value (ethanolic ataxia; compound 40.0 mg./kg. orally, no ethanol, 60 minutes) was 100% and the “% of the animals remaining on the rod” value (ethanolic ataxia; compound 40.0 mg./kg. orally, no ethanol, 90 minutes) was 100%. The “% of the animals remaining on the rod” value (ethanolic ataxia; compound 40.0 mg./kg. orally, no ethanol, 120 minutes) was 100%.

`CCN(CC)CCOc1ccc(C(O)(CC)c2ccc(C(F)(F)F)cc2)cc1` (stereo not drawn) [C, 4-trifluoromethyl-4'-[2-(diethylamino)-ethoxy]-α-ethyl-benzhydrol] gave an ED50 [3] of 20 mg/kg, an ED50 [4] of 30 mg/kg and an ED50 [5] of 160 mg/kg. For the same molecule, the “Oxotremorin inh. (result in words)” value [5] was “ineffective” and the mortality at 14 h (Acute toxicity) was 0%.

Work on `CCN(CC)CCCOc1ccc(C(O)(CC)c2cccc(Cl)c2)cc1` (stereo not drawn) [D, 3-chloro-4'-[3-(diethylamino)-propoxy]-α-ethyl-benzhydrol] yielded an ED50 [3] of 18.8 mg/kg, an ED50 [4] of 17 mg/kg and an ED50 [5] of 160 mg/kg. For the same molecule, the “Oxotremorin inh. (result in words)” value [5] was “ineffective” and the mortality at 14 h (Acute toxicity) was 0%.

`CN(C)CCCN1c2ccccc2CCc2ccccc21` [Imipramine, reference compound] showed an ED50 [3] of 13.7 mg/kg, an ED50 [4] of 15 mg/kg and an ED50 [5] of 50 mg/kg. For the same molecule, the mortality at 14 h (Acute toxicity) was 80%.

In the case of `N[C@@H](CS)C(=O)O` [L-cysteine, reference compound], the “Ethanolic narcosis period (Control ± S.E. %)” value (ethanolic narcosis [1]; 500.0 mg./kg. orally) is listed as 63 ± 4.2% and the “alcoholic narcosis reducing effect” value (ethanolic narcosis [6]) is listed as “known to have an alcoholic narcosis reducing effect”.
